Laboratory results: ChEMBL document CHEMBL1201862, “PubChem BioAssay data set” (2004)
Calls of active or inactive are those of the source.

Assays:
[1] = target: Glucose-6-phosphate 1-dehydrogenase (Homo sapiens, UniProt P11413); assay: inhibition of Homo sapiens G6PD, dose series – biochemical, fluorescence, selectivity assay for P. falciparum G6PD inhibitor project, dose response (AID 504792); assay type: functional
[2] = Fluorescence-based cell-based high throughput dose response assay for inhibitors of the interaction of nucleotide-binding oligomerization domain containing 2 (NOD2) and the receptor-interacting serine-threonine kinase 2 (RIPK2).; assay type: functional; details: Homo sapiens
Beta Lactamase [3] = target: T1, Beta Lactamase (Pseudomonas aeruginosa, UniProt Q932Y6); assay: BLA reporter interference, concentration series – BLA reporter cells, FRET fluorescence, artefact control for NOD2-RIPK2 interaction inhibitor project, dose response (AID 651552); assay type: functional, cell-based
[4] = target: DNA (cytosine-5)-methyltransferase 1 (Homo sapiens, UniProt P26358); assay: inhibition of DNA methylation by DNMT1 – biochemical, fluorescent molecular beacon, confirmation (AID 602386); assay type: functional
[5] = Luminescence Cell-Based Dose Confirmation HTS to Identify Activators of 5'UTR Stem-Loop Driven Alpha-Synuclein mRNA Translation in H4 Neuroglioblastoma Cells. [Related pubchem assays: 1829 (Project Summary), 1814 (Primary HTS)]; assay type: functional
[6] = Luminescence Cell-Based Dose Response HTS to Identify Activators of Luciferase Translation or Activity in H4 […] Cells. [Related pubchem assays: 1829 (Project Summary), 1814 (Primary HTS)]; assay type: functional
H4 = assay: Luminescence Cell-Based Dose Response HTS to Identify Activators of 5'UTR Stem-Loop Driven Prion Protein mRNA Translation in H4 Neuroglioblastoma Cells. [Related pubchem assays: 1829 (Project Summary), 1814 (Primary HTS)]; assay type: functional; details: Homo sapiens
[7] = reduction of Shn3 3'UTR-driven luciferase in osteoblasts – cell-based, Clone20 osteoblasts, firefly luciferase, cherry-picked, dose response (AID 624132); assay type: functional;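 also: firefly luciferase luminescence from reporter carrying the Shn3 3'UTR in osteoblasts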
[8] = loss of viability in HepG2 cells – cell-based, CellTiter-Glo, cherry-picked, cytotoxicity control for Shn3 inhibitor project, dose response (AID 624134); assay type: functional
[9] = non-specific 3'UTR reporter inhibition in Clone20-Shn3RL – cell-based, Renilla luciferase, cherry-picked, counter-screen for Shn3 inhibitor project, dose response (AID 624133); assay type: functional
[10] = target: Matrix metalloproteinase-14 (Homo sapiens, UniProt P50281); assay: Dose Response confirmation of uHTS hits for a small molecule inhibitors of MT1-MMP activation in a fluorescence assay set 2.; assay type: functional
[11] = viability loss in HEK293T cells – cell-based, cherry-picks, cytotoxicity control for HIV Vif inhibitor project, dose response (AID 652208); assay type: functional
[12] = activation of miR-122 Renilla sensor silencing – cell-based, Huh7 psiCHECK-miR122, Renilla luciferase, cherry-picked, dose response (AID 651956); assay type: functional;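 also: huh7 hepatoma cells stably carrying a psiCHECK-2 miR-122 sensor plasmid; renilla luciferase signal reporting endogenous miR-122 activity after 48 h compound exposure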
[13] = general mammalian cell viability loss – inhibitor set, cherry-pick, set 2, cytotoxicity control for miR-122 modulator project, dose response (AID 720697); assay type: functional, cell-based
[14] = general mammalian cell viability loss – activator set, cherry-pick, cytotoxicity control for miR-122 modulator project, dose response (AID 720690); assay type: functional, cell-based;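 also: HEK293T human cells scored for general mammalian cytotoxicity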
Beta-lactamase [15] = target: Beta-lactamase (Salmonella choleraesuis (strain SC-B67), UniProt Q5J463); assay: Epi-absorbance-based counterscreen for selective VIM-2 inhibitors: dose response biochemical high throughput screening assay to identify inhibitors of TEM-1 serine-beta-lactamase.
Beta-lactamase [16] = target: T2, Beta-lactamase (Pseudomonas aeruginosa, UniProt Q79MP6); assay: inhibition of IMP-1 beta-lactamase activity – biochemical, epi-absorbance, selectivity assay for VIM-2 inhibitor project, dose response (AID 1920)
Beta-lactamase [17] = target: T2, Beta-lactamase; assay: […] counterscreen for selective VIM-2 inhibitors: dose response biochemical high throughput screening assay to identify inhibitors of IMP-1 metallo-beta-lactamase.
H9c2 = assay: cells; assay type: functional, cell-based; details: Rattus norvegicus, H9c2, Myocardium;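 also: confirmatory concentration-response retest of ultra-high-throughput screening hits for modulation of myocardial damage; cell death induced by hydrogen peroxide oxidative stress; compound pretreatment for 60 min then peroxide exposure for 2 h; potency is for protecting the cells against peroxide damage rather than for killing them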
[18] = target: T3, Small ubiquitin-related modifier 2 (Homo sapiens, UniProt P61956); assay: disruption of SUMO2 interaction with SIM peptide – biochemical, fluorescence polarization, uHTS hits, selectivity assay for SUMO1 interaction inhibitor project, dose response (AID 624385); assay type: functional; details: read-out: IC50_Mean
[19] = target: T4, Small ubiquitin-related modifier 1 (Homo sapiens, UniProt P63165); assay: SUMO1 protein interaction blockers, potency – biochemical, fluorescence polarization, uHTS hits, dose response (AID 624382); assay type: functional; details: read-out: IC50_Mean
[20] = target: T3, Small ubiquitin-related modifier 2; assay: SUMO2 binding disruption by SUMO1 hits – biochemical, FRET, human SUMO2, uHTS hits, selectivity assay for SUMO1 interaction inhibitor project, dose response (AID 624384); assay type: functional; details: read-out: IC50_Mean
[21] = target: T4, Small ubiquitin-related modifier 1; assay: SUMO1 protein-protein binding blockers, potency – biochemical, FRET, dose response (AID 624383); assay type: functional; details: read-out: IC50_Mean
CHO = CHO cell viability loss, potency – luminescence, cytotoxicity control for TLR9-MyD88 binding inhibitor project, dose response (AID 588339); assay type: functional, cell-based, hamster; details: Cricetulus griseus;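 also: CHO cells stably coexpressing TLR9 and MyD88 fusions from primary screen; compound exposure lasted 48 hours before viability readout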
Beta Lactamase [22] = target: T1, Beta Lactamase; assay: BLA reporter interference, concentration series – BLA reporter cells, FRET fluorescence, artefact control for TLR9-MyD88 binding inhibitor project, dose response (AID 588341); assay type: cell-based;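 also: cell based assay in CHO-K1 cells stably expressing beta-lactamase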
[23] = viability loss in HeLa cells – cytotoxicity control for MgcRacGAP inhibitor project, dose response (AID 624300); assay type: functional
[24] = target: T5, Rac GTPase-activating protein 1 (Homo sapiens, UniProt Q9H0H5); assay: blockers of MgcRacGAP-driven Rac1 GTP hydrolysis – biochemical, ADP Hunter fluorescence, primary and confirmatory, confirmation (AID 624330); assay type: functional
T5 sequence (Q9H0H5 whole entry): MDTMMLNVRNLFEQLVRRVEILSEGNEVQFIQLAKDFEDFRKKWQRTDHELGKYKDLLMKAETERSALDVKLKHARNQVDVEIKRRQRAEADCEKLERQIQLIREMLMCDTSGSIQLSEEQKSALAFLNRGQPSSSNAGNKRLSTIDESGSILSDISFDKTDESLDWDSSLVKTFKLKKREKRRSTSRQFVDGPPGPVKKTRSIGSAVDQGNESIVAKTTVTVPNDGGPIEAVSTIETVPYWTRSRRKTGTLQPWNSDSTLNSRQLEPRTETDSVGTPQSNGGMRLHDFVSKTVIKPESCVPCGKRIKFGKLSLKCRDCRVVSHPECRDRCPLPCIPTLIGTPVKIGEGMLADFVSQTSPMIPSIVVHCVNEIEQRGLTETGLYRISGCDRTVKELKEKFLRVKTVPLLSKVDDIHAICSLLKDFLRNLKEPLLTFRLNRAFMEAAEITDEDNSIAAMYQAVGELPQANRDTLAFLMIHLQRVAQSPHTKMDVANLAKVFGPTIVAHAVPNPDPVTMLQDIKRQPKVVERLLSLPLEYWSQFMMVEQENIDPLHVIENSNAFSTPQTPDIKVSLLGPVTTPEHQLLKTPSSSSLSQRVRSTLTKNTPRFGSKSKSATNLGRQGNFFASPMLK

[25] = reduced cellular PGC1a acetyl-lysine signal – cell-based, cherry-picked samples, dose response (AID 720514); assay type: functional;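 also: potency may reflect raised or lowered acetylation signal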
[26] = Late stage assay provider counterscreen for TLR9 inhibitors: absorbance-based cell-based MTT cytotoxicity assay.; assay type: functional

T3 sequence (P61956 whole entry): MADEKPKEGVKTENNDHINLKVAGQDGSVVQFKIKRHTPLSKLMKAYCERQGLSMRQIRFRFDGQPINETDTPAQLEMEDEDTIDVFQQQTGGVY
T1 sequence (Q932Y6 whole entry): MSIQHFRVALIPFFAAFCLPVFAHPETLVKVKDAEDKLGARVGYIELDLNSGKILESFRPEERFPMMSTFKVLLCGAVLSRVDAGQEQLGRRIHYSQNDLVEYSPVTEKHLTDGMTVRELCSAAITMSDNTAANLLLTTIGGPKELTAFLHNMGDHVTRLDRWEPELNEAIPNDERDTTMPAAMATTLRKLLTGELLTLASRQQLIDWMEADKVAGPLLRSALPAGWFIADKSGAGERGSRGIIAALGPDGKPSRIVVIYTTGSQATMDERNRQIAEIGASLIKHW
T2 sequence (Q79MP6 whole entry): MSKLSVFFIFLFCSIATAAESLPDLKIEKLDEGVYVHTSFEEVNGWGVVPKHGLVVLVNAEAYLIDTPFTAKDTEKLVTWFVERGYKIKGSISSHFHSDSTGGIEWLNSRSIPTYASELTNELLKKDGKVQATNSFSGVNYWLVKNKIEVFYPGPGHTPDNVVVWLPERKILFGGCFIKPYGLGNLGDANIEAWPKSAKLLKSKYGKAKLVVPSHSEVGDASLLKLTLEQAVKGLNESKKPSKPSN
T4 sequence (P63165 whole entry): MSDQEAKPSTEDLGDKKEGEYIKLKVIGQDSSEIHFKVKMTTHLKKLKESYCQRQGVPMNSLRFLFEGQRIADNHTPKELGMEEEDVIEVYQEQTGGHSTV
Chain of Beta-lactamase (Salmonella choleraesuis (strain SC-B67), UniProt Q5J463) (Q5J463 whole entry): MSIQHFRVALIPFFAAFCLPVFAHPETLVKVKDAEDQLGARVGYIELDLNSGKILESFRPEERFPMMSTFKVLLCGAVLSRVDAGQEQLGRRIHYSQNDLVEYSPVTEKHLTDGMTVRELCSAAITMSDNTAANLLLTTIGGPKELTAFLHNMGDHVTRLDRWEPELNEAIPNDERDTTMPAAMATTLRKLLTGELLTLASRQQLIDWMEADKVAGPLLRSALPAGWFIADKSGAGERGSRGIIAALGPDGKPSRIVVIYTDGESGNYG
Chain of Glucose-6-phosphate 1-dehydrogenase (P11413 whole entry, the tested form may be a part): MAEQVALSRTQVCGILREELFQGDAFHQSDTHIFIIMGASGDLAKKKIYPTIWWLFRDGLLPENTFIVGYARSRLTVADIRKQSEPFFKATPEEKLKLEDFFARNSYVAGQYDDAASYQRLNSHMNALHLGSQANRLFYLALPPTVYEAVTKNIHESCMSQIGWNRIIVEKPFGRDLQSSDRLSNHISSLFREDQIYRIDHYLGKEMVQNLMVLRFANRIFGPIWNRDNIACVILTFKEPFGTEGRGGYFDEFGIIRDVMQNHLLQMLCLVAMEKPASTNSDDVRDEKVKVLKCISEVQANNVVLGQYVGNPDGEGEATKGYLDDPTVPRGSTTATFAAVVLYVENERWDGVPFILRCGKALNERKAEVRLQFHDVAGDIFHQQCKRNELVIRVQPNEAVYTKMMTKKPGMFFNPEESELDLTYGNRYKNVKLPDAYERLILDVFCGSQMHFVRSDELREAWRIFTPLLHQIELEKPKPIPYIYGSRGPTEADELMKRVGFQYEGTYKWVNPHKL
Chain of DNA (cytosine-5)-methyltransferase 1 (P26358 whole entry): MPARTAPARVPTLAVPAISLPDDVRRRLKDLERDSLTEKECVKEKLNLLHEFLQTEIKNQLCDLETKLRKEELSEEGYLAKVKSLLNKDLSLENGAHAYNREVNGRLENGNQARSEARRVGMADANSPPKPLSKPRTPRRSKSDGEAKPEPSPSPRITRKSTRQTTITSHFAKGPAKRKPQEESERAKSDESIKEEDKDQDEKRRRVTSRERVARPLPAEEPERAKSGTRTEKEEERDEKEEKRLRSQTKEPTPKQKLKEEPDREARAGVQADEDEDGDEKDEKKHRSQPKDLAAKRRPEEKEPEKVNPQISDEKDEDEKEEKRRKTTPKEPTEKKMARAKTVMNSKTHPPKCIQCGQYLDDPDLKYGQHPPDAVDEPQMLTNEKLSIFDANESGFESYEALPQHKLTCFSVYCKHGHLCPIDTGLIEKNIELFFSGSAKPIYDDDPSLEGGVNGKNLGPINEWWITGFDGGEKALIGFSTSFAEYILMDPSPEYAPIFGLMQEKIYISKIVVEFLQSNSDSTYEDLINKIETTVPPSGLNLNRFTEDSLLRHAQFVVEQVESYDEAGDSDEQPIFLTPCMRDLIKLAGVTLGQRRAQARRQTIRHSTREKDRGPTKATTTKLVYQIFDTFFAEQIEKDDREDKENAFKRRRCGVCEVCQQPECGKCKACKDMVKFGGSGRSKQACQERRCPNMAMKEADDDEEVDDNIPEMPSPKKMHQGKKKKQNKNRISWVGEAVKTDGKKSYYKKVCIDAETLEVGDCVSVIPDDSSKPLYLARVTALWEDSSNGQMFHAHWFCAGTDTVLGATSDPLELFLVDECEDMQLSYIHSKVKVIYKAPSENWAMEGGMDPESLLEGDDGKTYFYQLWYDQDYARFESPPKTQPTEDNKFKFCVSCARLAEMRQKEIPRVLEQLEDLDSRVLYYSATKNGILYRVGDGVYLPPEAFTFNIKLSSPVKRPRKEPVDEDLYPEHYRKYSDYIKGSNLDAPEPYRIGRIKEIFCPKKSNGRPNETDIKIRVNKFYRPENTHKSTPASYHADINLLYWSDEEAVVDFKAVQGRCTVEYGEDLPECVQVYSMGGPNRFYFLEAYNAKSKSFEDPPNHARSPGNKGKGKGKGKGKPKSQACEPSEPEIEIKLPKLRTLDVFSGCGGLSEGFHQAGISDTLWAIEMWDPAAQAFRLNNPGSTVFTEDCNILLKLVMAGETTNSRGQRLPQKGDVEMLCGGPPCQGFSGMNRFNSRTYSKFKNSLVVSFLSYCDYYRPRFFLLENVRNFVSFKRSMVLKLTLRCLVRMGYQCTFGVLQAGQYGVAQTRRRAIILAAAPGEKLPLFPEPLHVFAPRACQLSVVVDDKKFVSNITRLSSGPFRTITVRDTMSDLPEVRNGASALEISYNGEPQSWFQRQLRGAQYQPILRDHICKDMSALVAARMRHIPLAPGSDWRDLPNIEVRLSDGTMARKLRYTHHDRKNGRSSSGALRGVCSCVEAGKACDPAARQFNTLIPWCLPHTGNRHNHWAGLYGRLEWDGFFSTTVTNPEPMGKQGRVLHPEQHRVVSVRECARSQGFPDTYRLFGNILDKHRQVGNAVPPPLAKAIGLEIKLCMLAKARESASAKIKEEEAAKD

Q: Which IC50 [1] does the source give for Clc1nssc1=Nc1nncs1 here?
A: 42.3 µM (inactive)

Q: What about the IC50 [2] of the same compound?
A: 6.62 µM (active)

Q: What about the IC50 (Beta Lactamase [3]) of the same compound?
A: 49.8 µM (inactive)

Q: With CCCCCCCCc1nnc(NC(=O)c2ccco2)s1 as the compound, how does the IC50 [4] read?
A: 42.4 µM (active)

Q: With CC[n+]1c(/C=C/Nc2ccccc2)sc2ccccc21 as the compound, how does the EC50 [5] read?
A: > 120 µM (not active)

Q: What about the EC50 [6] of the same compound?
A: > 120 µM (not active)

Q: What about the EC50 (H4) of the same compound?
A: > 120 µM (not active)

Q: What about the AC50 [7] of the same compound?
A: 2.06 µM (active)

Q: And the AC50 [8]?
A: > 70 µM (inactive)

Q: What about the AC50 [9] of the same compound?
A: 5.83 µM (active)

Q: And the IC50 [10]?
A: 23.3 µM (inactive)

Q: For CC(=O)Nc1ccc(NC(=O)COc2ccccc2C(=O)Nc2cccc(Cl)c2Cl)cc1, which AC50 [11] is on record?
A: 8.25 µM (active)

Q: Which AC50 [12] does the source give for COc1ccc(OC)c(-c2cc(C3CCN(c4cc(Cl)nc(N)n4)CC3)[nH]n2)c1 here?
A: 42.9 µM (active)

Q: What about the AC50 [13] of the same compound?
A: 18.1 µM (active)

Q: What about the AC50 [14] of the same compound?
A: 16.7 µM (active)

Q: With Cc1ccccc1C(=O)Nc1nnc(SCC(=O)NCc2ccco2)s1 as the compound, how does the IC50 (Beta-lactamase [15]) read?
A: > 59.6 µM (inactive)

Q: What about the IC50 (Beta-lactamase [16]) of the same compound?
A: > 59.6 µM (inactive)

Q: What about the IC50 (Beta-lactamase [17]) of the same compound?
A: > 59.6 µM (inactive)

Q: With Nc1cc2nc(O)c3ccccc3c2cc1[N+](=O)[O-] as the compound, how does the IC50 (H9c2) read?
A: > 79 µM (inactive)

Q: And the IC50 [18]?
A: 45.7 µM (inactive)

Q: And the IC50 [19]?
A: 1.02 µM (active)

Q: What about the IC50 [20] of the same compound?
A: > 66 µM (inactive)

Q: What about the IC50 [21] of the same compound?
A: 51.8 µM (inactive)

Q: Which IC50 (CHO) does the source give for O=C1C=CC2(C=C1)O[C@H](Cc1ccccc1)[C@@H](Cc1ccccc1)O2 here?
A: 0.57 µM (active)

Q: And the IC50 (Beta Lactamase [22])?
A: 21.8 µM (inactive)

Q: And the CC50 [23]?
A: 46.5 µM (active)

Q: What about the IC50 [24] of the same compound?
A: 49.6 µM (active)

Q: And the AC50 [25]?
A: 1.05 µM (active)

Q: What about the CC50 [26] of the same compound?
A: 0.88 µM (active)
